From patent publication US20080026992A1, “Tyrosine Phosphorylation of Cdk Inhibitor Proteins of the Cip/Kip Family” (priority 2003, published 2008) come the findings set out here.

Holding throughout (format): cell-based, human
One assay deals with Lyn. The assay can be described thus: p27 Tyr-88 phosphorylation in 293T cells transfected with Lyn (Western blot, anti-phospho-Y88). The conditions noted are these: 10 μM STI-571. The protocol:
(§1) HA-tagged p27 was transfected in 293T cells with a Bcr-Abl or Lyn encoding plasmids. […] Equal amounts of cell lysates were analyzed by Western blotting with monoclonal anti-phospho-Y88 antibodies and HRP-conjugated anti-p27 antibodies as indicated. b. […] Western blot analysis was performed with monoclonal anti-phospho-Y88 and HRP-conjugated anti-p27 antibodies. c. […] Cells (1×10^7/ml) were labeled with a ^35S labeled methionine/cysteine mix for 1 hour, and subsequently incubated in the absence of radioactivity for the indicated times. p27 was immunoprecipitated using anti-p27 antibodies. The labeled protein was visualized by autoradiography. The intensity of the bands was determined using a PhosphorImager and is expressed as a fraction of the time point 0. […] One representative experiment is shown.
A general note: A western blot detects proteins with antibodies after separation by electrophoresis.

The subject of assay [1] is K562 cells. The assay can be described thus: p27 protein level in K562 cells (Western blot). The conditions noted are these: 2 or 10 μM STI-571 for 16 hours. The protocol: as §1
(§2) Tyr-88 phosphorylation of p27 in a Bcr-Abl transformed tumor cell line was investigated next. K562 chronic myelogenous leukaemia cells express p210 Bcr-Abl kinase that is sensitive to inhibition with ST-571.

Assay [2] has as its system K562 cells. The assay can be described thus: p27 stability in K562 cells (35S pulse-chase). The conditions noted are these: 10 μM STI-571 for 16 hours. The protocol: as §1, §2
The test system of assay [3] is K562 cells. The assay can be described thus: Cell cycle analysis by flow cytometry (BrdU/PI) of transfected K562 CML cells. The following applies: moderate expression, 48 hours after transfection, GFP-sorted. The protocol: FIG. 9: p27 Y88F arrests K562 CML cells in G1 phase of the cell cycle. K562 CML cells were transfected with GFP and either 25 ug of p27 or 25 ug of p27-Y88F expression vector. 48 hours after transfection, cells with similar GFP expression level were isolated by flow cytometry cell sorting and the cell cycle distribution of these cells was determined using BrdU incorporation and PI staining. The distribution of these cells in the cell cycle phases is shown. Only p27-Y88F expression leads to an accumulation of G1 phase cells and reduced cells in S-phase.
The percentage of cells in the G1, S and G2/M phases of the cell cycle was determined by two dimensional flow cytometry. The DNA content was determined by staining DNA with the intercalating dye propidium iodide and quantifying the cell fractions with differing DNA content by flow cytometry. In addition, cells in S-phase were labelled with the nucleotide analog bromo 5-bromo-2′-deoxyuridine (BrdU), which is incorporated into newly synthesized DNA. […] Cells were analyzed on FACS ([…] Dickinson) flow cytometer using the CellQuest software. […]
A general note: A flow cytometer gives signals particle by particle.

Turning to `Cc1ccc(NC(=O)c2ccc(CN3CCN(C)CC3)cc2)cc1Nc1nccc(-c2cccnc2)n1` [STI-571, 4-[(4-Methyl-1-piperazinyl)methyl]-N-[4-methyl-3-[[4-(3-pyridinyl)-2-pyrimidinyl]amino]-phenyl] benzamide methane sulfonate], the “Tyr-88 phosphorylation of p27 by Lyn” value in the assay with Lyn was “no effect”. In addition, the p27 protein level entry in the assay with K562 cells [1] is recorded as “dramatic increase”. Moreover, the p27 stability result in the assay with K562 cells [2] is recorded as “increase”.
For “p27-Y88F: mutant of p27 where tyrosine 88 is exchanged to phenylalanine”, in the assay on K562 cells [3], the S-phase entry result is listed as “impaired” and the “effect on cell cycle / accumulation of cells in G1 phase” value is given as “increasing cells accumulating in G1 phase”.
